Measurements from patent EP1282414B1, “FELBAMATE DERIVED COMPOUNDS FOR TREATING NEUROPATHIC PAIN” (University of Virginia Patent Foundation, priority 2000, dated 2001).
Values belong to the compound of their own block, whether it stands above or below them.

What was measured:
[1] = Stability of oxazinane-dione at relevant pH; assay type: physicochemical
Source text: It is anticipated, therefore, that the oxazinane-dione 9 is responsible for some aspects of felbamate's efficacy in vivo. As patients undergoing felbamate therapy for seizure control ingest large quantities of felbamate (grams per day), even a 1 - 2% conversion to a pharmacologically active metabolite could have significant effects. […] In light of the possibility that the oxazinane-dione 9 could be a metabolic precursor to the major human metabolite, acid carbamate 4, it may be formed in significant quantities (the acid carbamate was reported to represent ∼ 12% of a dose). […] Also included in this class are cyclic congeners 21 and 22, which may be formed from felbamate derivatives (see scheme II). Also included is 20, which may be an unknown metabolite of felbamate 1 and could be produced from felbamate derivative 12 by the cytochrome P450 metabolism.

[2] = LC/MS quantification of felbamate and metabolites in patient urine; assay type: in vivo, patients
Description: Preparation of Patient Urine Samples. Urine samples were obtained from patient volunteers undergoing felbamate therapy for control of epileptic seizures and under the care of physicians at either the University of Virginia (Charlottesville, Virginia) or the EpiCare Center (Memphis, Tennessee). Urine samples were diluted four fold with distilled water (this was done prior to overnight shipment for samples requiring shipping) and placed in an orbital shaking water bath for ∼ 20 min at 37 °C to insure that all of the analytes were in solution. 500 µL of this diluted sample were removed and added to 100 µL of a mixture of the four deuterated internal standards. […] After mixing, 200 µL were removed and added to 20 µL of 20% H0Ac. This acidified sample was then applied to a preconditioned Waters "Oasis" solid phase extraction cartridge (Waters Corp., Woburn, MA). The cartridge was washed with 2 mL 0.1% HOAc followed by 3 mL 10% CH3CN/90% water (0.1 %) H0Ac. The analytes and internal standards were then eluted with 3 mL 30% CH3CN:70% (0.1 %) HOAc. This fraction was then analyzed by LC/MS without further manipulation.
LC/MS Analysis of Urine Samples for Metabolite Quantification. LC/MS analysis was performed using a Waters 2690 HPLC equipped with an autosampler and a Waters 486 tunable absorbance detector. This LC system was interfaced to a Finnigan MAT LCQ ion trap mass spectrometer. A 10 µL injection of the fraction from solid phase extraction was applied to a Waters Symmetry C8 reversed phase column (33% CH3CN:67% (0.1%) H0Ac, 2.1 mm x 150 mm, 0.2 mL/min). The post-column flow was directed through a Waters 486 tunable absorbance detector (10 µL flow cell, λ = 214 nm) which was used for qualitative assessment of the sample and not for quantitation. The flow was then directed to the electrospray ionization source of the LCQ.
The mass spectrometer was programmed to collect data in full scan mode from 190 - 320 m/z and was tuned to maximize the signal from the analytes under the HPLC conditions. The values for the electrospray parameters were as follows: heated capillary temperature = 180°C; spray voltage = 5.6 kV; capillary voltage = 20 V; sheath gas (nitrogen) flow rate = 70; auxillary gas (helium) flow rate = 20. The automatic gain control (AGC) was on with a target ion count of 7 x 10^7 ions and a maximum ion inject time of 150 ms. […]
Quantification was achieved by integration of the peaks from the mass chromatogram for each analyte using software (Navigator 1.1) provided with the LCQ. The area (expressed as counts x seconds) of the peak for each metabolite was compared to the area for its corresponding deuterated internal standard. As the absolute amount of internal standard added per mL of urine was known, the absolute amount of analyte per mL of urine could be determined.

[3] = tested on: painful peripheral neuropathy; details: rat model of painful peripheral neuropathy; cited from earlier work
[4] = patients on felbamate monotherapy; cited from earlier work
[5] = urine of patients on felbamate therapy, 34 samples

stability at relevant pH (in words) [1]: unstable
Structure (SMILES): O=C1NC(=O)C(c2ccccc2)CO1 (stereo not shown) [oxazinane-dione 9]

average ratio of Nac-alcohol to Nac-acid [2, 5]: 6.4 | ratio of Nac-alcohol to Nac-acid (range over patients) [2, 5]: 2- 14
Structure (SMILES): CC(=O)N[C@@H](CSCC(CO)c1ccccc1)C(=O)O (stereo partly shown) [Nac-alcohol]

amount of felbamate excreted per mL of urine ([2]; patient with total daily dose of 3.6 grams of felbamate (lowest of range)): 819 ± 8.5 nmol/mL | amount of felbamate excreted per mL of urine ([2]; patient with total daily dose of 6.0 grams of felbamate (highest of range)): 10,064 ± 515 nMoles/mL
Structure (SMILES): NC(=O)OCC(COC(N)=O)c1ccccc1 [felbamate, 2-phenyl-1,3-propanediol dicarbamate]
effect on measures of pain (in words) [3]: significant reductions in all measures of pain | Weight loss [4]: 4-5%
